Reference: PubChem BioAssay (NCI)
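Interpolation was linear, between the two tested concentrations surrounding the appropriate level; five concentrations were tested over 48 hours in 96-well plates. Here, GI50 denotes the concentration required for 50% inhibition of growth. TGI is the concentration that stops growth completely.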

How the values were obtained:
Experiment in all cases: DTP human tumour cell line panel, 48 h
[1] = tested on: CCRF-CEM leukemia
[2] = tested on: HOP-92 NSCLC
[3] = tested on: MALME-3M melanoma
[4] = tested on: MOLT-4 leukemia
[5] = tested on: OVCAR-5 ovarian
[6] = tested on: SK-MEL-28 melanoma
[7] = tested on: SN12C renal
[8] = tested on: SR leukemia
[9] = tested on: TK-10 renal
[10] = tested on: UACC-257 melanoma

SMILES | GI50 [1] | TGI [1] | GI50 [2] | TGI [2] | GI50 [3] | TGI [3] | GI50 [4] | TGI [4] | GI50 [5] | TGI [5] | GI50 [6] | TGI [6] | GI50 [7] | TGI [7] | GI50 [8] | TGI [8] | GI50 [9] | TGI [9] | GI50 [10] | TGI [10]
Cc1cc(Nc2c3ccccc3nc3ccccc23)ccc1NS(C)(=O)=O | 3.25 µM | 20.3 µM | 0.758 µM | 5.69 µM | 3.4 µM | 10.3 µM | 3.28 µM | 9.61 µM | 6.14 µM | 22.2 µM | 5.4 µM | 19.5 µM | 3.78 µM | 20.8 µM | 2.11 µM | 5.91 µM | 3.23 µM | 11.7 µM | 2.41 µM | 9.58 µM
CN1C(=O)[C@@H](NC(=O)[C@H](CCC(F)(F)F)[C@H](CCC(F)(F)F)C(N)=O)N=C(c2ccccc2)c2ccccc21 | 55 µM | > 100 µM | 59.1 µM | > 100 µM | > 100 µM | > 100 µM | 27.3 µM | > 100 µM | > 100 µM | > 100 µM | 59.7 µM | > 100 µM | > 100 µM | > 100 µM | 28.4 µM | > 100 µM | > 100 µM | > 100 µM | 67.7 µM | > 100 µM
CN(CC#N)C1CCCC[C@H]1O (stereo not given in full) | – | > 100 µM | – | > 100 µM | – | > 100 µM | – | > 100 µM | – | > 100 µM | – | > 100 µM | – | > 100 µM | – | > 100 µM | – | > 100 µM | – | > 100 µM
O=C(Nc1ccccc1O)c1ccc(CNc2ccnc(C(F)(F)F)c2)cc1 | 0.354 µM | 12.8 µM | 0.699 µM | 15.4 µM | 1.03 µM | 11.6 µM | 2.38 µM | 28.5 µM | 16.5 µM | > 100 µM | 3.52 µM | 23.4 µM | 4.61 µM | > 100 µM | 2 µM | > 100 µM | 11.3 µM | 36 µM | 8.4 µM | > 100 µM
